Where only a bound is given, the exact number is not on record here.

Series [1] concerns the target T1, recombinant human mGluR4a receptors (Homo sapiens, UniProt Q14833).
T1 construct: expressed in transfected cells
Nature of the series: mGluR4 assay on HEK-expressing human mGluR4 (fluorescent cell based Ca2+ mobilization assay, FLIPR). The following applies: HEK-293 cells expressing hmGluR4; enhancement of EC25 glutamate response; mean of at least three independent experiments in duplicate; read-out: Ca^2+ Flux (mean EC50). An excerpt:
mGluR4 Assay on HEK-Expressing Human mGluR4 The compounds of the present invention are positive allosteric modulators of mGluR4 receptor. Their activity was examined on recombinant human mGluR4a receptors by detecting changes in intracellular Ca^2+ concentration, using the fluorescent Ca^2+-sensitive dye Fluo-4-(AM) and a Fluorometric Imaging Plate Reader (FLIPR, Molecular Devices, Sunnyvale, Calif.) The cDNA encoding the human metabotropic glutamate receptor (hmGluR4), (accession number NM_000841.1, NCBI Nucleotide database browser), was subcloned into an expression vector containing also the hygromycin resistance gene. In parallel, the cDNA encoding a G protein allowing redirection of the activation signal to intracellular calcium flux was subcloned into a different expression vector containing also the puromycin resistance gene. Transfection of both these vectors into HEK293 cells with PolyFect reagent (Qiagen) according to supplier's protocol, and hygromycin and puromycin treatment allowed selection of antibiotic resistant cells which had integrated stably one or more copies of the plasmids. Positive cellular clones expressing hmGluR4 were identified in a functional assay measuring changes in calcium fluxes in response to glutamate or selective known mGluR4 orthosteric agonists and antagonists. HEK-293 cells expressing hmGluR4 were maintained in media containing DMEM, dialyzed Fetal Calf Serum (10%), Glutamax™ (2 mM), Penicillin (100 units/mL), Streptomycin (100 μg/mL), Geneticin (100 μg/mL) and Hygromycin-B (40 μg/mL) and puromycin (1 μg/mL) at 37° C./5% CO2. Human mGluR4 HEK-293 cells were plated out 24 hours prior to FLIPR^384 assay in black-walled, clear-bottomed, poly-L-ornithine-coated 384-well plates at a density of 25,000 cells/well in a glutamine/glutamate free DMEM medium containing foetal bovine serum (10%), penicillin (100 units/mL) and streptomycin (100 μg/mL) at 37 C/5% CO2. On the day of the assay, the medium was aspirated and the cells were loaded with a 3 μM solution of Fluo-4-AM (LuBioScience, Lucerne, Switzerland) in 0.03% pluronic acid. After 1 hour at 37 C/5% CO2, the non incorporated dye was removed by washing cell plate with the assay buffer and the cells were left in the dark at room temperature for six hours before testing. All assays were performed in a pH 7.4 buffered-solution containing 20 mM HEPES, 143 mM NaCl, 6 mM KCl, 1 mM MgSO4, 1 mM CaCl2, 0.125 mM sulfapyrazone, 0.1% glucose. After 10 s of basal fluorescence recording, various concentrations of the compounds of the invention were added to the cells. Changes in fluorescence levels were first monitored for 180 s in order to detect any agonist activity of the compounds. Then the cells were stimulated by an EC25 glutamate concentration for an additional 110 s in order to measure enhancing activities of the compounds of the invention. EC25 glutamate concentration is the concentration giving 25% of the maximal glutamate response. The concentration-response curves of representative compounds of the present invention were generated using the Prism GraphPad software (Graph Pad Inc, San Diego, USA). The curves were fitted to a four-parameter logistic equation: (Y=Bottom+(Top−Bottom)/(1+10^((Log EC50−X)*Hill Slope) allowing the determination of EC50 values. The Table 5 below represents the mean EC50 obtained from at least three independent experiments of selected molecules performed in duplicate.
(In general: Calcium flux is commonly read through the fluorescence of an indicator in the cells.)

T1 sequence (Q14833 33-912): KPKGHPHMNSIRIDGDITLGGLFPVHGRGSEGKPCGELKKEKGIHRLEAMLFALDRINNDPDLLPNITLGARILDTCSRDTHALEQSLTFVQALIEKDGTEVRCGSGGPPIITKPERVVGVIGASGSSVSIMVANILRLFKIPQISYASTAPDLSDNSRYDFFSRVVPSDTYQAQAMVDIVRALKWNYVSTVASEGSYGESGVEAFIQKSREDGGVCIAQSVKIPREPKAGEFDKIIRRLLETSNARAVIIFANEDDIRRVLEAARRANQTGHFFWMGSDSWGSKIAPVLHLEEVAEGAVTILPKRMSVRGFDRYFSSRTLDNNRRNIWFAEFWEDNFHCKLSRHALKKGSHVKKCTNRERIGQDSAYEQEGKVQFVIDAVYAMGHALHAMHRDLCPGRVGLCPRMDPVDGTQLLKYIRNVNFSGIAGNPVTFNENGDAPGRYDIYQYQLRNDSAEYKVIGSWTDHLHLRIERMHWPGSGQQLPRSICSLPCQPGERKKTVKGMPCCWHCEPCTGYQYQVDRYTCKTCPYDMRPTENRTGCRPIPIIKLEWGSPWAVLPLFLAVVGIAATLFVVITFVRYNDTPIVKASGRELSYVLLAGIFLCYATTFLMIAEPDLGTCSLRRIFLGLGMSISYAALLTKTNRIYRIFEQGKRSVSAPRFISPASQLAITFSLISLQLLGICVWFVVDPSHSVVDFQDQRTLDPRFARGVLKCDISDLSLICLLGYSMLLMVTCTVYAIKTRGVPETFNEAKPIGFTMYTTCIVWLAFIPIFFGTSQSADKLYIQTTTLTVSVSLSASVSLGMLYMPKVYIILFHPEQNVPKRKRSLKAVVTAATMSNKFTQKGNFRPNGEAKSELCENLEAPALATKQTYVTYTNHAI

With `Cc1sc(Nc2ccccn2)nc1-c1cn[nH]c1` [Compound 1-16, 5-Methyl-4-(1H-pyrazol-4-yl)-N-(pyridin-2-yl)thiazol-2-amine], the melting point (as a rule, the temperature of the solid-liquid transition) is 291 to 294 °C. Moreover, in series [1], the 50% effective concentration (EC50) (in general, the concentration giving half of the maximal effect) was under 500 nM.

Take `Cc1sc(Nc2ncccc2F)nc1-c1cn[nH]c1` [Compound 1-46, N-(3-Fluoropyridin-2-yl)-5-methyl-4-(1H-pyrazol-4-yl)thiazol-2-amine]: the melting point was 300 °C (dec.). In series [1], the 50% effective concentration (EC50) was under 500 nM.

For the compound `Cc1sc(Nc2cccc(F)n2)nc1-c1cn[nH]c1` [Compound 1-33, N-(6-Fluoropyridin-2-yl)-5-methyl-4-(1H-pyrazol-4-yl)thiazol-2-amine], the melting point was 290 °C (dec.). In addition, the EC50 in series [1] is under 500 nM.

Consider `Cc1cccc(Nc2nc(-c3cn[nH]c3)cs2)n1` [Compound 1-53, N-(6-Methylpyridin-2-yl)-4-(1H-pyrazol-4-yl)thiazol-2-amine], for which the melting point is 259 to 260 °C. For the same compound, the half-maximal effective concentration (EC50) in series [1] is under 500 nM.

The compound `Cc1sc(Nc2ccccn2)nc1-c1cnn(C(N)=O)c1` [Compound 1-27, 4-(5-Methyl-2-(pyridin-2-ylamino)thiazol-4-yl)-1H-pyrazole-1-carboxamide] displayed a melting point of 294 to 296 °C. Further, in series [1], the concentration for a half-maximal effect (EC50) was under 500 nM.

`Cc1n[nH]cc1-c1nsc(Nc2ccccn2)n1` [Compound 1-5, 3-(3-Methyl-1H-pyrazol-4-yl)-N-(pyridin-2-yl)-1,2,4-thiadiazol-5-amine] showed a melting point of over 280 °C. For the same compound, the 50% effective concentration (EC50) in series [1] is 1000 to 10000 nM.

For the compound `FC(F)(F)c1n[nH]cc1-c1csc(Nc2ccccn2)n1` [Compound 1-12, N-(Pyridin-2-yl)-4-(3-(trifluoromethyl)-1H-pyrazol-4-yl)thiazol-2-amine], the melting point stood at 250 °C. For the same compound, in series [1], the half-maximal effective concentration (EC50) lay within 500 to 1000 nM.

Take `c1ccc(Nc2nc(-c3cn[nH]c3)cs2)nc1` [Compound 1-25, N-(4-(1H-pyrazol-4-yl)thiazol-2-yl)pyridin-2-amine]: the melting point was in the range of 261 to 262 °C. For the same compound, the EC50 in series [1] is under 500 nM.

In turn, `CC(C)c1n[nH]cc1-c1csc(Nc2ccccn2)n1` [Compound 1-13, 4-(3-Isopropyl-1H-pyrazol-4-yl)-N-(pyridin-2-yl)thiazol-2-amine] showed a melting point of 195 °C. Besides, the EC50 in series [1] is 1000 to 10000 nM.

In the case of `c1ccc(Nc2nc(-c3c[nH]nc3C3CC3)cs2)nc1` [Compound 1-60, 4-(3-Cyclopropyl-1H-pyrazol-4-yl)-N-(pyridin-2-yl)thiazol-2-amine], the melting point was 211 to 213 °C. In series [1], the EC50 was under 500 nM.

`Cc1sc(Nc2cccc(Cl)n2)nc1-c1cn[nH]c1` [Compound 1-31, N-(6-Chloropyridin-2-yl)-5-methyl-4-(1H-pyrazol-4-yl)thiazol-2-amine]: the melting point was 290 °C (dec.). Also, the EC50 in series [1] was under 500 nM.

`Fc1cccc(Nc2nc(-c3cn[nH]c3)cs2)n1` [Compound 1-51, N-(6-Fluoropyridin-2-yl)-4-(1H-pyrazol-4-yl)thiazol-2-amine] returned a melting point of 281 to 285 °C. Further, in series [1], the EC50 was under 500 nM.

Compound `Cc1n[nH]cc1-c1csc(Nc2ccccn2)n1` [Compound 1-11, 4-(3-Methyl-1H-pyrazol-4-yl)-N-(pyridin-2-yl)thiazol-2-amine] showed a melting point of 255 to 257 °C. Further, in series [1], the 50% effective concentration (EC50) is under 500 nM.

Compound `CC(=O)n1cc(-c2nsc(Nc3ccccc3)n2)c(C)n1` [Compound 1-2, 1-(3-Methyl-4-(5-(phenylamino)-1,2,4-thiadiazol-3-yl)-1H-pyrazol-1-yl)ethanone] had a melting point of 204 to 208 °C. Besides, in series [1], the EC50 was in the range of 1000 to 10000 nM.

Regarding `FC(F)(F)c1n[nH]cc1-c1nsc(Nc2ccccn2)n1` [Compound 1-10, N-(Pyridin-2-yl)-3-(3-(trifluoromethyl)-1H-pyrazol-4-yl)-1,2,4-thiadiazol-5-amine], the melting point is over 260 °C. Further, the EC50 in series [1] lay within 500 to 1000 nM.

(Values after US8524718B2, “Heteroaromatic derivatives and their use as positive allosteric modulators of metabotropic glutamate receptors” (Addex Pharma S.A., priority 2007, dated 2013).)
